Assays:
Human NTCP = molecular target: T1, Human NTCP (Homo sapiens, UniProt Q14973); assay: [3H]TC transport in NTCP-HEK293 cells; assay type: cell-based; conditions: read-out: IC50 [3H]taurocholic acid uptake
T1 construct: expressed in transfected cells; peptide purchased from Pharmaron
T1 sequence (Q14973 1-349): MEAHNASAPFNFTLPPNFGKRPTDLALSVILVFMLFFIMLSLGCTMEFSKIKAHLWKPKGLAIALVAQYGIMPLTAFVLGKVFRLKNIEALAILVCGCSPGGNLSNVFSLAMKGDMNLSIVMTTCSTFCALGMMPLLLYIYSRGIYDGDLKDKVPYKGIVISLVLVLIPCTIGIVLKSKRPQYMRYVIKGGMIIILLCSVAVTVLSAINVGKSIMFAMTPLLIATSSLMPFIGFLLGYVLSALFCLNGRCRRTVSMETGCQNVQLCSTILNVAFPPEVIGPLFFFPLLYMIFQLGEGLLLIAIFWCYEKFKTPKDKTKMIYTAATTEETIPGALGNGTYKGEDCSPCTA
Description: Human embryonic kidney (HEK293) cells were stably transfected with human NTCP, C-terminally tagged with the FLAG epitope (here referred to as NTCP-HEK293 cells). Cells were maintained at 37° C., 5% CO2 and 95% humidity in DMEM/F-12 medium (Thermo Fisher Scientific, Waltham, Mass., USA) supplemented with 10% fetal calf serum (Sigma-Aldrich, St. Louis, Mo., USA), 4 mM L-glutamine, and penicillin/streptomycin. HepG2 cells stably transfected with NTCP-FLAG (here referred to as NTCP-HepG2) were cultured under the same conditions in DMEM with all supplements listed above, except for L-glutamine. […]
Bile acid transport measurements were performed in the NTCP-HEK293 cells with tritium-labelled taurocholic acid (here referred to as [^3H]TC) (20 Ci/mmol, 0.09 mCi/mL, Perkin Elmer, Waltham, USA). […] Cell-associated radioactivity of [^3H]TC or [^3H]preS1 was quantified by liquid scintillation counting in a Packard Microplate Scintillation Counter TopCount NXT (Packard Instrument Company, Meriden, USA). Transport rates and [^3H]preS1 binding were determined in counts per minute (cpm). The mean of the 0% control was subtracted and the net [^3H]TC transport rates and net [^3H]preS1 binding rates, respectively, were expressed as % of control. IC50 values were calculated from quadruplicate determinations by GraphPad Prism 6 (GraphPad, San Diego, Calif., USA). […]

HBV genotype C = assay: Serum HBeAg in HBV-infected PXB mice; assay type: in vivo, hepatitis B virus; conditions: 10 mg/kg and 30 mg/kg, Day 14
Description: Target volume of blood was collected from all surviving animals under isoflurane anesthesia via the retro-orbital plexus/sinus using Intramedic™ Polyethylene Tubing at each time point. Two microliters (2 μL) from the collected blood were used for human albumin measurements. The remaining blood was centrifuged to separate serum to be used for analyzing the indicated biomarkers. Blood samples were collected according to Table 8.
The individual blood samples of the animals were left at room temperature for at least 5 minutes to coagulate and then centrifuged at 13200×g, 4° C. for 3 minutes to obtain serum. The serum was divided into separate labeled microtubes and stored at −80° C. until analysis.
Serum HBeAg concentration was determined by SRL, Inc. based on a Chemiluminescent Enzyme Immuno Assay (CLEIA) developed by Fujirebio ([…] HBeAg, […]® Prestoll). The dilution factor was 30 and 10, and the measurement range of this assay was between 0.1 and 1590 C.O.I. For the 30-fold diluted samples, the measurement range was adjusted to be between 3 and 47700 C.O.I. And for the 10-fold diluted samples, the measurement range was adjusted to be between 1 and 15900 C.O.I. The lowest quantification limit of this assay was 3.0 C.O.I.

In the case of `CCCCC1CN(c2ccccc2)c2cc(SC)c(O/C=C(\F)C(=O)O)cc2S(=O)(=O)N1C` (centres unmarked) [Compound 1, (Z)-3-((3-butyl-2-methyl-7-(methylthio)-1,1-dioxido-5-phenyl-2,3,4,5-tetrahydro-1,2,5-benzothiadiazepin-8-yl)oxy)-2-fluoroacrylic acid], the IC50 (Human NTCP) is reported as 0.186 µM and the “serum HBeAg compared to controls” value (HBV genotype C) is reported as “lower”.
